Columns and labels:
DDR2 T654M = biological target: T1, DDR2 T654M (Homo sapiens, UniProt Q16832, T654M); test: Radiometric protein kinase assay (33PanQuinase Activity Assay), DDR2 T654M; assay type: biochemical; settings: ATP 0.3 μM
T1 construct: either as full-length or enzymatically active fragments; purchased ProQinase GmbH (Freiburg, Germany)
T1 sequence (Q16832 22-855 T654M): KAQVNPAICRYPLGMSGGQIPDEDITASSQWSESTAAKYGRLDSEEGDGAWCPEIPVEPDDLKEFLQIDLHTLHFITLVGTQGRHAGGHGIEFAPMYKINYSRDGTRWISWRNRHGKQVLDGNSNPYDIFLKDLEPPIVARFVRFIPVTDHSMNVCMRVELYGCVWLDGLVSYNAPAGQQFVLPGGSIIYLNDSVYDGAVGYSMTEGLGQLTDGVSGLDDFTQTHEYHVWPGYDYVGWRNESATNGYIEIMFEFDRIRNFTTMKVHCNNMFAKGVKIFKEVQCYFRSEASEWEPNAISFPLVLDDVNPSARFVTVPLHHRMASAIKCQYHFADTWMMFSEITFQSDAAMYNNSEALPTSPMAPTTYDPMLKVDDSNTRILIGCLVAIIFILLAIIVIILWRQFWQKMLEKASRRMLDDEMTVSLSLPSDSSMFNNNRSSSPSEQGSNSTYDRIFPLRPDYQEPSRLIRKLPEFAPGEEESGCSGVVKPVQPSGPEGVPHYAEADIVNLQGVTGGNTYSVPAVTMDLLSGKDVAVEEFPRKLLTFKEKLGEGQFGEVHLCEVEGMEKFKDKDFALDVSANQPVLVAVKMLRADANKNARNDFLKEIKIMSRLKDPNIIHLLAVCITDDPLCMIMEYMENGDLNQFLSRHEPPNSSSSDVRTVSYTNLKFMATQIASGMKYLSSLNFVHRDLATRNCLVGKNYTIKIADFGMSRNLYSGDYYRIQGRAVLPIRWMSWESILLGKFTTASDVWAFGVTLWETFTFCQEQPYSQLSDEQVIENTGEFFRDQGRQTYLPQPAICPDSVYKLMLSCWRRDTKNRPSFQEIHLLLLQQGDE
Procedure: (§1) A proprietary radiometric protein kinase assay (33PanQuinase® Activity Assay) developed by ProQuinase GmbH (Freiburg, Germany) was used for measuring the kinase activity of selected protein kinases. All assays were performed in FlashPlates™ wells 96 Perkin Elmer (Boston, Mass., USA) in a reaction volume of 50 μl. The reaction mixture was obtained in 4 steps in the following order: • 1. 10 μl of a solution of non-radioactive ATP in water; • 2. 25 μl of assay buffer/[γ-^33P]-ATP mixture • 3. 5 μl of test sample in 10% DMSO • 4. 10 μl of enzyme/substrate mixture
(§2) All protein kinases provided by ProQinase were expressed in Sf9 insect cells or in E. coli as recombinant GST-fusion proteins or His-tagged proteins, either as full-length or enzymatically active fragments. […] Kinases from external vendors (CAR=Carna Biosciences Inc.; INV=Life Technologies (Invitrogen Corporation); MIL=Merck-Millipore (Millipore Corporation), were expressed, purified and quality-controlled by virtue of the vendors readings.
(§3) A stock solution of compound of formula (I) was diluted to 5×10-04M/100% DMSO. […] Incorporation of 33Pi (counting of “cpm”) was determined with a microplate scintillation counter (Microbeta, Wallac). […]
(§4) Based on each 10 corresponding residual activities, IC50 values were calculated using Prism 5.04 for Windows (Graphpad, San Diego, Calif.). […]

RET V804M = biological target: T2, RET V804M (Homo sapiens, UniProt P07949, V804M); test: Radiometric protein kinase assay (33PanQuinase Activity Assay), RET V804M; assay type: biochemical; settings: ATP 0.3 μM
T2 construct: either as full-length or enzymatically active fragments; purchased ProQinase GmbH (Freiburg, Germany)
Procedure: as §1, §2, §3, §4

T2 sequence (P07949 29-1114 V804M): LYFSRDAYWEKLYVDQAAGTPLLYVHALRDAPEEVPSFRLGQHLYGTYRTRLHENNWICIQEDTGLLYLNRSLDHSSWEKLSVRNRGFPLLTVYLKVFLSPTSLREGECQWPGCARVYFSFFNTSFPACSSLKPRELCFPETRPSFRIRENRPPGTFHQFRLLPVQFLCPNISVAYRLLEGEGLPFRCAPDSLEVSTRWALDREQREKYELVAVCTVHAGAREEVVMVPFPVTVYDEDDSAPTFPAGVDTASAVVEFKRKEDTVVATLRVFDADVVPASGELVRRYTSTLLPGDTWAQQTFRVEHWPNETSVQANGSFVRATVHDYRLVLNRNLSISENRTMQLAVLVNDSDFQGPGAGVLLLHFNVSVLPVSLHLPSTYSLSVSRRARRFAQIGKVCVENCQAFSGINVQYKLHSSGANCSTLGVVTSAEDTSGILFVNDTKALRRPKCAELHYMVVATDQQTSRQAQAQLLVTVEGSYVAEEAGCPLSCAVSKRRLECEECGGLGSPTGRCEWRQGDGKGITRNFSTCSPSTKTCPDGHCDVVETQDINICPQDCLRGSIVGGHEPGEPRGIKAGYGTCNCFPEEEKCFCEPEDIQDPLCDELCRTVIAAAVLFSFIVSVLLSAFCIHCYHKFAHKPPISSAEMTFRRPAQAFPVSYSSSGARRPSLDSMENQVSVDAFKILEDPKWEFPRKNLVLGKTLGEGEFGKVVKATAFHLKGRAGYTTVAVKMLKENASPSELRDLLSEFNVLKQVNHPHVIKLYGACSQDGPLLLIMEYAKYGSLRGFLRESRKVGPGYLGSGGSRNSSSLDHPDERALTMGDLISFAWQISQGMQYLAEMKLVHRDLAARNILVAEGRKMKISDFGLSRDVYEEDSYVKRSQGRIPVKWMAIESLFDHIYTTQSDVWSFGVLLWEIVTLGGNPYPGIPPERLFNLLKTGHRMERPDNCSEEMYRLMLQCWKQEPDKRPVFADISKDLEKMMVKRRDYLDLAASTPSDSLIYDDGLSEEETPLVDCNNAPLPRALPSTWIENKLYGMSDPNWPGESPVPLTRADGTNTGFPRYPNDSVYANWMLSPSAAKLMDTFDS

With `CN1CCN(c2ccc(C(=O)Nc3n[nH]c4cc(-c5ccc(O)cc5)c(Cc5cc(F)cc(F)c5)cc34)c(NC3CCOCC3)c2)CC1` [Example 3, N-[5-[(3,5-difluorophenyl)methyl]-6-(4-hydroxyphenyl)-1H-indazol-3-yl]-4-(4-methylpiperazin-1-yl)-2-(tetrahydropyran-4-ylamino)benzamide] the IC50 (DDR2 T654M) was 84 nM and the IC50 (RET V804M) was 85 nM.
